Results on ten molecules are retold here after patent publication US5610195A, “Ornithine decarboxylase inhibiting branched aminooxy amino alkane derivatives” (Ciba-Geigy Corporation, priority 1993, dated 1997).

Where a name gives a salt, the structure may show the parent alone. Read-outs that look alike come from different tables or passages of the source.

For one test, the target named is T1, ODC from the rat liver (Rattus norvegicus, UniProt P09057).
T1 sequence (P09057 1-461): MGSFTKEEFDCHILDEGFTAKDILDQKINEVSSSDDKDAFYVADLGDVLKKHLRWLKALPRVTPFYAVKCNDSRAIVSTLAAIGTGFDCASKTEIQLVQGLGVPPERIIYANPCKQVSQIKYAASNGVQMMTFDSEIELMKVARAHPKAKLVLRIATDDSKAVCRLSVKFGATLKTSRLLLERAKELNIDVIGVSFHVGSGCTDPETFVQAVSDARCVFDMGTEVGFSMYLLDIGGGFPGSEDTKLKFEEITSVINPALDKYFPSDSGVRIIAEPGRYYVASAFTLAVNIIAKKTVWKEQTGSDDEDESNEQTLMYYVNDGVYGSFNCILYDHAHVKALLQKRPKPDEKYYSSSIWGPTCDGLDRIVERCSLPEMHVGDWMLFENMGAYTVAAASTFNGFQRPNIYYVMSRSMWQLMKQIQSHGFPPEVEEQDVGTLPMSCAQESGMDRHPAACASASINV
Kind of test: inhibition of ornithine decarboxylase (Seely and Pegg method, ODC from rat liver). The format is biochemical. How it is done: White-Tabor (editors): Methods in Enzymology, Volume 94: Polyamines, Academic Press, New York 1983. If ODC from the rat liver is used in this test (isolation: Hayashi, S. I. and Kameji, T., same volume, pages 154-158), IC50 values in the micromolar range down to about 0.01 μM, preferably between about 0.01 and 1 μM, for example between 0.014 and 0.7 μM, are obtained for compounds of the formula I. IC50 is the concentration of the inhibitor at which the ODC activity is 50% of a control without inhibitor.
The following results were obtained for inhibition of ODC from the rat liver (see above, Seely and Pegg and Hayashi and Kameji) with determination of the IC50 and for inhibition of the tumour growth of T24 bladder carcinoma cells (described above) with determination of the IC50 : […]

In test [1] the test system is human T24 bladder carcinoma cells. Kind of test: inhibition of growth of human T24 bladder carcinoma cells (methylene blue staining). The format is cell-based. The settings on record: 120 h, read-out: T24 inhibition IC50. The protocol: The carcinoma cells (1000-1500) are transinoculated into 96-well microtitre plates and incubated overnight under the conditions mentioned. The test substance is added in serial dilutions on day 1. The plates are incubated under the conditions mentioned for 5 days. […] After the incubation, the cells are fixed with 3.3% (weight/volume=w/v) aqueous glutaraldehyde solution, washed with water and stained with 0.05% (w/v) aqueous methylene blue solution. After washing, the dye is eluted with 3% (w/v) aqueous hydrochloric acid. Thereafter, the optical density (OD) per depression, which is directly proportional to the number of cells, is measured with a photometer (Titertek multiskan) at 665 nm. The IC50 values are calculated with a computer system using the formula [formula]

The conditions of test [2]: cited: Eloranta et al., Life Chemistry Reports 9, 163-169 (1991); cited from earlier work.
The next test deals with diamine oxidase (DAO). The settings on record: known compound, state of the art; cited from earlier work.
A further test concerns the target T2, DAO from pig kidney (Sus scrofa, UniProt Q9TRC7).
T2 construct: DAO from pig kidney; purchased Sigma Chemie, Deisenhofen, Germany; host or cells: pig kidney
T2 sequence (Q9TRC7 25-755): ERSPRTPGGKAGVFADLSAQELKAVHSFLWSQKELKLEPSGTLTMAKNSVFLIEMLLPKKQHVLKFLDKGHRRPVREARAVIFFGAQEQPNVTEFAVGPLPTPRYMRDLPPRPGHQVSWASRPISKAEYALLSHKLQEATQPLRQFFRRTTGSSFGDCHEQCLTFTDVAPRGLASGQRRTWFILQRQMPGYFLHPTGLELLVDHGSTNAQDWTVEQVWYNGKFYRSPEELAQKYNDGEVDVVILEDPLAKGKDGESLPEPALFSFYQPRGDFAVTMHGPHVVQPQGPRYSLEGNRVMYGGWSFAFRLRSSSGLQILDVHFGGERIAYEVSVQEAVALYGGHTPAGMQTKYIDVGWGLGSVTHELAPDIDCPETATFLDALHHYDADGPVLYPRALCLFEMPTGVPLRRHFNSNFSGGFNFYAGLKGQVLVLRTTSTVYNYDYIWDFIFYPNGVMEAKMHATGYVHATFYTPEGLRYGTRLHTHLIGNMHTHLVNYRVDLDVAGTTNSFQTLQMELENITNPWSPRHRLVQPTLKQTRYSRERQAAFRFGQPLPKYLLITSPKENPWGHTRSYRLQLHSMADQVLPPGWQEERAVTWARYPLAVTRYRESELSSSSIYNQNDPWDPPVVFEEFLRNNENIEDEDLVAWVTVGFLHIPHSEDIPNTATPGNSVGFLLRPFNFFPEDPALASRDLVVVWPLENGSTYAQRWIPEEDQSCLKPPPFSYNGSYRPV
Kind of test: selectivity: inhibition of diamine oxidase (14C-putrescine assay) relative to ODC. The format is biochemical. The settings on record: ODC from rat liver. How it is done: Briefly, the batch contains (expressed as the final concentrations) 0.1M potassium phosphate buffer pH 7.4; 10 mM mercaptoethanol, 0.40 mM putrescine, including 40 nCi [1,4-^14 C]putrescine (Amersham, 110 Ci/mole) and variable amounts of enzyme protein (DAO) and inhibitor. For standard experiments, the batches are incubated for 30 minutes at 37° C. and then transferred to an ice-bath. The reaction is stopped by addition of 0.5 ml of ice-cold 1M Na2 CO3 solution which contains 1 mM aminoguanidine. After addition of 4 ml of toluene with 5 g/l of PPO (2,5-diphenyloxazole), the test tube is continuously inverted around the transverse axis at room temperature for 10 minutes, for mixing, and is then centrifuged at 1800×g in a centrifugal rotor at 4° C. for 5 minutes and finally frozen in ethanol/dry ice. […] After a total of 3 extractions, the combined toluene extracts (which contain the radiolabelled 1-pyrroline to the extent that it has been liberated from putrescine by the action of the DAO) are measured in a liquid scintillation counter (Rack Beta 1215, LKB-Wallac). For calculation of the radioactivity employed, an aliquot of the aqueous phase after 3 extractions is transferred to Whatman GF/C filter (glass fibre filter, Whatman, USA), dried in vacuo and, after addition of 5 ml of toluene/PPO, is counted. […]

The subject of a further test is ODC. The settings on record: known compound, state of the art; cited from earlier work.
Setting [3] is: human T24 bladder carcinoma cells, 5 days.

By IC50 is commonly meant the concentration needed to halve the response being measured. As to `CC(N)C(C)CON` (centres unmarked) [Example 10, 4-Aminooxy-3-methyl-2-butylamine sulfate], the IC50 on ODC from the rat liver was found to be 0.32 µM.

On to `CC(N)CCON` (centres unmarked) [Example 3, 4-Aminooxy-2-butylamine dihydrochloride], for which the 50% inhibitory concentration (IC50) was 3.76 µM in test [1] (setting [3]) and 0.019 µM on ODC from the rat liver.

With `C[C@@H](N)CCON` [Example 2, (2R)-4-Aminooxy-2-butylamine dihydrochloride], the IC50 in test [1] (setting [3]) was 5.49 µM; at ODC from the rat liver, 0.027 µM.

As for `NCCCON` [APA, 1-aminooxy-3-aminopropane], the “activity in whole animals” value in test [2] was “practically no action in whole animal tests”. The “selectivity with respect to diamine oxidase (in words)” value with diamine oxidase (DAO) was “not selective with respect to diamine oxidase”. The “quotient of IC50 (DAO)/IC50 (ODC)” value on DAO from pig kidney is “about 1.2”. Moreover, the “inhibition of ODC (in words)” value in the test on ODC is reported as “potent inhibitor of ODC”.

At ODC from the rat liver, `CC(CCN)ON` (centres unmarked) [Example 9, 3-Aminooxy-1-butylamine dihydrochloride] displayed an IC50 of 0.41 µM.

Turning to `C[C@H](N)CCON` [Example 1, (2S)-4-Aminooxy-2-butylamine dihydrochloride], the IC50 in test [1] (setting [3]) turned out to be 8.1 µM; on ODC from the rat liver it was 0.088 µM.

For `CC(CN)CON` (centres unmarked) [Example 7, 3-Aminooxy-2-methyl-1-propylamine sulfate], the IC50 in test [1] (Homo sapiens) stood at 2.74 µM; on ODC from the rat liver, 0.027 µM.

Regarding `CCC(N)CCON` (centres unmarked) [Example 4, 1-aminooxy-3-pentylamine dihydrochloride], the 50% inhibitory concentration (IC50) against ODC from the rat liver was found to be 0.36 µM.

For the molecule `CC(C)(N)CCON` [Example 5, 4-Aminooxy-2-methyl-2-butylamine dihydrochloride], the half-inhibitory concentration (IC50) at ODC from the rat liver was 0.3 µM.

As to `NOCC[C@H](N)CO` [Example 6, (2S)-4-Aminooxy-1-hydroxy-2-butylamine sulfate], the IC50 on ODC from the rat liver came out at 0.44 µM.
